Source: ChEMBL document CHEMBL1154382, “Preliminary SAR analysis of novel antiproliferative N(6),5'-bis-ureidoadenosine derivatives” (2009)

What was measured:
Format in all cases: functional
Conditions in all cases: values are per cent of control
CCRF-CEM = assay: Antiproliferative activity against human CCRF-CEM cells at 10 uM assessed as cell growth inhibition relative to control
HL-60(TB) = assay: Antiproliferative activity against human HL-60(TB) cells at 10 uM assessed as cell growth inhibition relative to control
K562 = assay: Antiproliferative activity against human K562 cells at 10 uM assessed as cell growth inhibition relative to control
MOLT-4 = assay: Antiproliferative activity against human MOLT4 cells at 10 uM assessed as cell growth inhibition relative to control
[1] = Antiproliferative activity against human […] cells at 10 uM assessed as cell growth inhibition relative to control
A549 = assay: Antiproliferative activity against human A549 cells at 10 uM assessed as cell growth inhibition relative to control
EKVX = assay: Antiproliferative activity against human EKVX cells at 10 uM assessed as cell growth inhibition relative to control
PC-3 = assay: Antiproliferative activity against human PC3 cells at 10 uM assessed as cell growth inhibition relative to control
HOP-62 = assay: Antiproliferative activity against human HOP62 cells at 10 uM assessed as cell growth inhibition relative to control
HOP-92 = assay: Antiproliferative activity against human HOP92 cells at 10 uM assessed as cell growth inhibition relative to control
NCI-H226 = assay: Antiproliferative activity against human NCI-H226 cells at 10 uM assessed as cell growth inhibition relative to control
NCI-H23 = assay: Antiproliferative activity against human NCI-H23 cells at 10 uM assessed as cell growth inhibition relative to control
NCI-H322M = assay: Antiproliferative activity against human NCI-H322M cells at 10 uM assessed as cell growth inhibition relative to control
NCI-H460 = assay: Antiproliferative activity against human NCI-H460 cells at 10 uM assessed as cell growth inhibition relative to control
NCI-H522 = assay: Antiproliferative activity against human NCI-H522 cells at 10 uM assessed as cell growth inhibition relative to control
COLO 205 = assay: Antiproliferative activity against human COLO205 cells at 10 uM assessed as cell growth inhibition relative to control
HCC 2998 = assay: Antiproliferative activity against human HCC2998 cells at 10 uM assessed as cell growth inhibition relative to control
HCT-116 = assay: Antiproliferative activity against human HCT116 cells at 10 uM assessed as cell growth inhibition relative to control
HCT-15 = assay: Antiproliferative activity against human HCT15 cells at 10 uM assessed as cell growth inhibition relative to control
HT-29 = assay: Antiproliferative activity against human HT-29 cells at 10 uM assessed as cell growth inhibition relative to control
KM12 = assay: Antiproliferative activity against human KM12 cells at 10 uM assessed as cell growth inhibition relative to control
SW-620 = assay: Antiproliferative activity against human SW620 cells at 10 uM assessed as cell growth inhibition relative to control
LOX IMVI = assay: Antiproliferative activity against human LOXIMVI cells at 10 uM assessed as cell growth inhibition relative to control
Malme-3M = assay: Antiproliferative activity against human MALME-3M cells at 10 uM assessed as cell growth inhibition relative to control
M14 = assay: Antiproliferative activity against human M14 cells at 10 uM assessed as cell growth inhibition relative to control
SK-MEL-2 = assay: Antiproliferative activity against human SK-MEL-2 cells at 10 uM assessed as cell growth inhibition relative to control
SK-MEL-28 = assay: Antiproliferative activity against human SK-MEL-28 cells at 10 uM assessed as cell growth inhibition relative to control
SK-MEL-5 = assay: Antiproliferative activity against human SK-MEL-5 cells at 10 uM assessed as cell growth inhibition relative to control
UACC-257 = assay: Antiproliferative activity against human UACC257 cells at 10 uM assessed as cell growth inhibition relative to control
UACC-62 = assay: Antiproliferative activity against human UACC62 cells at 10 uM assessed as cell growth inhibition relative to control
SF-268 = assay: Antiproliferative activity against human SF268 cells at 10 uM assessed as cell growth inhibition relative to control
SF-295 = assay: Antiproliferative activity against human SF295 cells at 10 uM assessed as cell growth inhibition relative to control
SF-539 = assay: Antiproliferative activity against human SF539 cells at 10 uM assessed as cell growth inhibition relative to control
SNB-19 = assay: Antiproliferative activity against human SNB19 cells at 10 uM assessed as cell growth inhibition relative to control
SNB-75 = assay: Antiproliferative activity against human SNB75 cells at 10 uM assessed as cell growth inhibition relative to control
U-251 = assay: Antiproliferative activity against human U251 cells at 10 uM assessed as cell growth inhibition relative to control
IGROV-1 = assay: Antiproliferative activity against human IGROV1 cells at 10 uM assessed as cell growth inhibition relative to control
OVCAR-3 = assay: Antiproliferative activity against human OVCAR-3 cells at 10 uM assessed as cell growth inhibition relative to control
OVCAR-4 = assay: Antiproliferative activity against human OVCAR4 cells at 10 uM assessed as cell growth inhibition relative to control
OVCAR-5 = assay: Antiproliferative activity against human OVCAR5 cells at 10 uM assessed as cell growth inhibition relative to control
OVCAR-8 = assay: Antiproliferative activity against human OVCAR8 cells at 10 uM assessed as cell growth inhibition relative to control
SK-OV-3 = assay: Antiproliferative activity against human SKOV3 cells at 10 uM assessed as cell growth inhibition relative to control
786-0 = assay: Antiproliferative activity against human 786-0 cells at 10 uM assessed as cell growth inhibition relative to control
A498 = assay: Antiproliferative activity against human A498 cells at 10 uM assessed as cell growth inhibition relative to control
ACHN = assay: Antiproliferative activity against human ACHN cells at 10 uM assessed as cell growth inhibition relative to control
CAKI-1 = assay: Antiproliferative activity against human Caki1 cells at 10 uM assessed as cell growth inhibition relative to control
RXF 393 = assay: Antiproliferative activity against human RXF393 cells at 10 uM assessed as cell growth inhibition relative to control
SN12C = assay: Antiproliferative activity against human SN12C cells at 10 uM assessed as cell growth inhibition relative to control
TK-10 = assay: Antiproliferative activity against human TK10 cells at 10 uM assessed as cell growth inhibition relative to control
UO-31 = assay: Antiproliferative activity against human UO31 cells at 10 uM assessed as cell growth inhibition relative to control
BT-549 = assay: Antiproliferative activity against human BT549 cells at 10 uM assessed as cell growth inhibition relative to control
[2] = Antiproliferative activity against human Hs 578T cells at 10 uM assessed as cell growth inhibition relative to control
MCF7 = assay: Antiproliferative activity against human MCF7 cells at 10 uM assessed as cell growth inhibition relative to control
MDA-MB-231 = assay: Antiproliferative activity against human MDA-MB-231 cells at 10 uM assessed as cell growth inhibition relative to control
MDA-MB-468 = assay: Antiproliferative activity against human MDA-MB-468 cells at 10 uM assessed as cell growth inhibition relative to control
T47D = assay: Antiproliferative activity against human T47D cells at 10 uM assessed as cell growth inhibition relative to control
DU-145 = assay: Antiproliferative activity against human DU145 cells at 10 uM assessed as cell growth inhibition relative to control

## CCOC(=O)C[C@H]1[C@@H](O[Si](C)(C)C(C)(C)C)[C@H](n2cnc3c(N)ncnc32)O[C@@H]1CO
CCRF-CEM
  growth, % of control at 10 µM: 83%
HL-60(TB)
  growth, % of control at 10 µM: 89%
K562
  growth, % of control at 10 µM: 84%
MOLT-4
  growth, % of control at 10 µM: 74%
[1]
  growth, % of control at 10 µM: 99%
A549
  growth, % of control at 10 µM: 100%
EKVX
  growth, % of control at 10 µM: 75%
PC-3
  growth, % of control at 10 µM: 85%
HOP-62
  growth, % of control at 10 µM: 91%
HOP-92
  growth, % of control at 10 µM: 81%
NCI-H226
  growth, % of control at 10 µM: 90%
NCI-H23
  growth, % of control at 10 µM: 107%
NCI-H322M
  growth, % of control at 10 µM: 91%
NCI-H460
  growth, % of control at 10 µM: 101%
NCI-H522
  growth, % of control at 10 µM: 92%
COLO 205
  growth, % of control at 10 µM: 109%
HCC 2998
  growth, % of control at 10 µM: 104%
HCT-116
  growth, % of control at 10 µM: 94%
HCT-15
  growth, % of control at 10 µM: 91%
HT-29
  growth, % of control at 10 µM: 98%
KM12
  growth, % of control at 10 µM: 109%
SW-620
  growth, % of control at 10 µM: 103%
LOX IMVI
  growth, % of control at 10 µM: 92%
Malme-3M
  growth, % of control at 10 µM: 93%
M14
  growth, % of control at 10 µM: 99%
SK-MEL-2
  growth, % of control at 10 µM: 106%
SK-MEL-28
  growth, % of control at 10 µM: 112%
SK-MEL-5
  growth, % of control at 10 µM: 81%
UACC-257
  growth, % of control at 10 µM: 105%
UACC-62
  growth, % of control at 10 µM: 73%
SF-268
  growth, % of control at 10 µM: 98%
SF-295
  growth, % of control at 10 µM: 97%
SF-539
  growth, % of control at 10 µM: 91%
SNB-19
  growth, % of control at 10 µM: 103%
SNB-75
  growth, % of control at 10 µM: 75%
U-251
  growth, % of control at 10 µM: 99%
IGROV-1
  growth, % of control at 10 µM: 90%
OVCAR-3
  growth, % of control at 10 µM: 98%
OVCAR-4
  growth, % of control at 10 µM: 97%
OVCAR-5
  growth, % of control at 10 µM: 101%
OVCAR-8
  growth, % of control at 10 µM: 103%
SK-OV-3
  growth, % of control at 10 µM: 103%
786-0
  growth, % of control at 10 µM: 97%
A498
  growth, % of control at 10 µM: 98%
ACHN
  growth, % of control at 10 µM: 102%
CAKI-1
  growth, % of control at 10 µM: 92%
RXF 393
  growth, % of control at 10 µM: 112%
SN12C
  growth, % of control at 10 µM: 85%
TK-10
  growth, % of control at 10 µM: 94%
UO-31
  growth, % of control at 10 µM: 72%
BT-549
  growth, % of control at 10 µM: 79%
[2]
  growth, % of control at 10 µM: 102%
MCF7
  growth, % of control at 10 µM: 89%
MDA-MB-231
  growth, % of control at 10 µM: 90%
MDA-MB-468
  growth, % of control at 10 µM: 94%
T47D
  growth, % of control at 10 µM: 82%
DU-145
  growth, % of control at 10 µM: 93%
